Measured values from ChEMBL document CHEMBL5465560, “Selectivity Literature for EUbOPEN Chemogenomic Library” (2024).

Experiments:
D(3) dopamine receptor = D(3) dopamine receptor (Homo sapiens, UniProt P35462); assay: Selectivity interaction (GPCR panel (PDSP screen)) EUB0001079a DRD3; conditions: at 10 µM
[1] = target: T1, Mitogen-activated protein kinase kinase kinase 19 (Homo sapiens) (UniProt Q56UN5); assay: Selectivity interaction (KinomeScan (DiscoverX)) EUB0001868a MAP3K19; conditions: at 1 µM
T1 sequence (whole entry): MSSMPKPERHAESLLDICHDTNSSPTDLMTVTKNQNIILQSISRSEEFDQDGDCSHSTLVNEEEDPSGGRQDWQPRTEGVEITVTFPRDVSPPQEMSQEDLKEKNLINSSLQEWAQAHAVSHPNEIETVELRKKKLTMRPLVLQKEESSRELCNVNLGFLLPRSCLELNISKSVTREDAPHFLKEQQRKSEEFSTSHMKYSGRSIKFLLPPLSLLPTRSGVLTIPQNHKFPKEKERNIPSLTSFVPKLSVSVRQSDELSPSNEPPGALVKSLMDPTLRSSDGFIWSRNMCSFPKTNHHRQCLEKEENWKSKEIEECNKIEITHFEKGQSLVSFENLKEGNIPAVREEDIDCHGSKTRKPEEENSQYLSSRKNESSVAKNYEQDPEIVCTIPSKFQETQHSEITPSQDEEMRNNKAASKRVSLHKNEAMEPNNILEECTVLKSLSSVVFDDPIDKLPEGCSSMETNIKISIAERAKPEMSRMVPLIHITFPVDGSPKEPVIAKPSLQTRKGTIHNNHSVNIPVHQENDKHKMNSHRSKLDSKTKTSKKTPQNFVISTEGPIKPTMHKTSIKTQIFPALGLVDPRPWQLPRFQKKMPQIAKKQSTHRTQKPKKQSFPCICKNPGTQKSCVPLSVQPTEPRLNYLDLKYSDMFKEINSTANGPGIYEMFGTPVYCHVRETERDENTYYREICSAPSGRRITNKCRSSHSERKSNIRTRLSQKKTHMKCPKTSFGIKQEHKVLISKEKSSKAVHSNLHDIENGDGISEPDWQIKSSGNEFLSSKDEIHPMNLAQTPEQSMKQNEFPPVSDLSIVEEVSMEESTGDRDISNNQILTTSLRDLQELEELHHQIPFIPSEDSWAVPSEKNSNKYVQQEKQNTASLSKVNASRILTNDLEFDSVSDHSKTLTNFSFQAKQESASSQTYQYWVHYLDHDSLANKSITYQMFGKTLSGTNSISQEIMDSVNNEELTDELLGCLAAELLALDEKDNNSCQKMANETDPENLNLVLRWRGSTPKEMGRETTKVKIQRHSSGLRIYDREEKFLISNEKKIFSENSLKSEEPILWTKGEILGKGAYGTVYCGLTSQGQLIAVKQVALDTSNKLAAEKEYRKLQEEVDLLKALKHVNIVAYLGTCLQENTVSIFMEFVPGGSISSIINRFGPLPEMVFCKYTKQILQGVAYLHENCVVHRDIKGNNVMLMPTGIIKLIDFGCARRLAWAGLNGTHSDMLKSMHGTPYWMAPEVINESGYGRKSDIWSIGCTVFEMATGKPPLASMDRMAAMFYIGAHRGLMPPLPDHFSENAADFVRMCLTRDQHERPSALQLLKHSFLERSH

[2] = target: Serine/threonine-protein kinase VRK2 (Homo sapiens) (UniProt Q86Y07); conditions: at 10 µM
Serine/threonine-protein kinase VRK2 (Homo sapiens), sequence (Q86Y07 whole entry, canonical isoform): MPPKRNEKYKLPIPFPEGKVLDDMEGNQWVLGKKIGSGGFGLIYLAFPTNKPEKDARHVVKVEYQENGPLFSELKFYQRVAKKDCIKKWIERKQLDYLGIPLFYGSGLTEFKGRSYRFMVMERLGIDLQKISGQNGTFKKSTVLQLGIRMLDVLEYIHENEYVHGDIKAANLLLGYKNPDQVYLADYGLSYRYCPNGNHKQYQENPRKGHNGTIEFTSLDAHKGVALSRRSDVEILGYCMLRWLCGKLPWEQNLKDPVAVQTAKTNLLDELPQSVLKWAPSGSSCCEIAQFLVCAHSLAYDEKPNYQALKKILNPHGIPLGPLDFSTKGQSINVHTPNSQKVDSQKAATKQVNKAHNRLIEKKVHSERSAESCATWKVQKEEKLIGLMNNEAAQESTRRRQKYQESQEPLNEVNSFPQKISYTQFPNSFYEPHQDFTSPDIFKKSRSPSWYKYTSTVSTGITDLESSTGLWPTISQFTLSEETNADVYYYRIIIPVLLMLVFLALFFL

[3] = target: Casein kinase I isoform gamma-2 (Homo sapiens) (UniProt P78368); assay: Selectivity interaction (Kinase panel (Z-LYTE Assay)) EUB0001632a CSNK1G2; conditions: at 10 µM
Casein kinase I isoform gamma-2 (Homo sapiens), sequence (P78368 whole entry, looked up, canonical isoform): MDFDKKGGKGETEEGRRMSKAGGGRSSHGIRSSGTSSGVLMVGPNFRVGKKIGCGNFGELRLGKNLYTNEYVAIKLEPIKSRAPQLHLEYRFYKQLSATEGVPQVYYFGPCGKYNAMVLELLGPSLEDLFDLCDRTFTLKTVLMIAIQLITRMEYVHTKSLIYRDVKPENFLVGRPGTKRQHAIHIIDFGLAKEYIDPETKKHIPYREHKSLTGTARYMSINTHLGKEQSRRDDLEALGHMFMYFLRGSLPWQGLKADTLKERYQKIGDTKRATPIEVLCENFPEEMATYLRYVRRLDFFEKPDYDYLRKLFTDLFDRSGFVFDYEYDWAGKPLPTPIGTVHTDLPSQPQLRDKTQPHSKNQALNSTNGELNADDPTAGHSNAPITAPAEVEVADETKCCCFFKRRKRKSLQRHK

[4] = target: Tyrosine-protein kinase JAK1 (Homo sapiens, UniProt P23458); assay: Selectivity interaction (ActivX KiNativ screen (kinase selectivity in THP-1 cell lysates)) EUB0000639a JAK1; format: subcellular; conditions: lysate, at 0.04 µM
Tyrosine-protein kinase JAK1, sequence (P23458 whole entry): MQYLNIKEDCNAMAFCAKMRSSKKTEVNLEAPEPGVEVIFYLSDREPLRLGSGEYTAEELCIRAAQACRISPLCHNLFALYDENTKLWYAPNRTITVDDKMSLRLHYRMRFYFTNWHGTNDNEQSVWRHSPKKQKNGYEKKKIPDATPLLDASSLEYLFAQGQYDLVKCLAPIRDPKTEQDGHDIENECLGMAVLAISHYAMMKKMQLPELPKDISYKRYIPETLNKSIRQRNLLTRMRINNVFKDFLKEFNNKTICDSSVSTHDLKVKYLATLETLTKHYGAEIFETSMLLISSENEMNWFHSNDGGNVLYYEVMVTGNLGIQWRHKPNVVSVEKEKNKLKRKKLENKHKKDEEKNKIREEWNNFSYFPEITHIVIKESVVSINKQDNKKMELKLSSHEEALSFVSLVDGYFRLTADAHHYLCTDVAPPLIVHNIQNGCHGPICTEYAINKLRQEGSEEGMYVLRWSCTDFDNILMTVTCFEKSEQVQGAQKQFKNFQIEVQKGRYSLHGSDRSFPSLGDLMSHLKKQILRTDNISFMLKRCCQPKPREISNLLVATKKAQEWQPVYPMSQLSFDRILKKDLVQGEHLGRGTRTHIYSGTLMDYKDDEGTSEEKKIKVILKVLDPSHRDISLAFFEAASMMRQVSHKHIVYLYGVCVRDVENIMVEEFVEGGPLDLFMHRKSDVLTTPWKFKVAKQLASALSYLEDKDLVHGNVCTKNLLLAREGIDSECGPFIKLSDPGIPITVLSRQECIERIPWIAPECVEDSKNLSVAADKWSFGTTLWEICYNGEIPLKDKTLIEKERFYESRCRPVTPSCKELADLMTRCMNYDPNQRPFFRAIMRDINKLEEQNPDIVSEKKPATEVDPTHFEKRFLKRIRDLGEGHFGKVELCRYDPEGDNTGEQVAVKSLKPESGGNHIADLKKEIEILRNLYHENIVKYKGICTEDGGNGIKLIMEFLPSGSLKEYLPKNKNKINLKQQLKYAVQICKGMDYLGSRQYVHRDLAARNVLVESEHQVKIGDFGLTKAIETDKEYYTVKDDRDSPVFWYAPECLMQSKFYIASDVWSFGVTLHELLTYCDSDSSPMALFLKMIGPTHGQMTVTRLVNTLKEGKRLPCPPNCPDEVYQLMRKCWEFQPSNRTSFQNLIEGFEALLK

[5] = target: Tyrosine-protein kinase SYK (Homo sapiens, UniProt P43405); assay: Selectivity interaction (ActivX KiNativ screen (kinase selectivity in THP-1 cell lysates)) EUB0000639a SYK; format: subcellular; conditions: lysate, at 1 µM
[6] = target: T2, Serine/threonine-protein kinase Sgk3 (Homo sapiens) (UniProt Q96BR1); assay: Selectivity interaction (ActivX KiNativ screen (kinase selectivity in THP-1 cell lysates)) EUB0000639a SGK3; format: subcellular; conditions: lysate, at 0.2 µM
T2 sequence (whole entry): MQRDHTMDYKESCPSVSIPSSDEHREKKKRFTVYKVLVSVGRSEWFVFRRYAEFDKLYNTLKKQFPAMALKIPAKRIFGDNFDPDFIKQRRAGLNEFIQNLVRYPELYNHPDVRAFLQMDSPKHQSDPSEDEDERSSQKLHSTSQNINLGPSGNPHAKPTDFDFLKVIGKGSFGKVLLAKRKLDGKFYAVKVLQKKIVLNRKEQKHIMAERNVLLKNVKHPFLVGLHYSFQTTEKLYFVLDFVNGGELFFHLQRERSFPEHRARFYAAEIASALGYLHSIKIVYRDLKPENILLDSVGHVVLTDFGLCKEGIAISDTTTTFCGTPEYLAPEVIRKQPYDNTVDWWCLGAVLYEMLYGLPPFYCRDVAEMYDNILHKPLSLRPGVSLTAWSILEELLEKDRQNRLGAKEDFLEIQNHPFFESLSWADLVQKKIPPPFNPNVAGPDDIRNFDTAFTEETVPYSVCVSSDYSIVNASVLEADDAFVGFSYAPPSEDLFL

Aurora kinase B = Aurora kinase B (Homo sapiens, UniProt Q96GD4); assay: Selectivity interaction (Panel of kinases, GPCRs, ion channels and transporters (enzymatic assay)) EUB0000223bCl AURKB
Aurora kinase B, sequence (Q96GD4 whole entry): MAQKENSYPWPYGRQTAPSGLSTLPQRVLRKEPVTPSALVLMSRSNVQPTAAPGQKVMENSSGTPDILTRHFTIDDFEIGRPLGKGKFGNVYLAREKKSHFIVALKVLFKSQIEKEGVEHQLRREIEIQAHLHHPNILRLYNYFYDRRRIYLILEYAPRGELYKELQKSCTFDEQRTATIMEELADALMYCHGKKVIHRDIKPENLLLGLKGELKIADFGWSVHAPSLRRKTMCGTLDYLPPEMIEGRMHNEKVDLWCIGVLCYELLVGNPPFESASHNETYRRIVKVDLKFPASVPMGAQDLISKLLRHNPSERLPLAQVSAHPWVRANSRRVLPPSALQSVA

[7] = target: Mitogen-activated protein kinase 1 (Homo sapiens, UniProt P28482); assay: Selectivity interaction (SelectScreen profiling (Invitrogen)) EUB0000607a MAPK1; conditions: at 2 µM
Mitogen-activated protein kinase 1, sequence (P28482 whole entry): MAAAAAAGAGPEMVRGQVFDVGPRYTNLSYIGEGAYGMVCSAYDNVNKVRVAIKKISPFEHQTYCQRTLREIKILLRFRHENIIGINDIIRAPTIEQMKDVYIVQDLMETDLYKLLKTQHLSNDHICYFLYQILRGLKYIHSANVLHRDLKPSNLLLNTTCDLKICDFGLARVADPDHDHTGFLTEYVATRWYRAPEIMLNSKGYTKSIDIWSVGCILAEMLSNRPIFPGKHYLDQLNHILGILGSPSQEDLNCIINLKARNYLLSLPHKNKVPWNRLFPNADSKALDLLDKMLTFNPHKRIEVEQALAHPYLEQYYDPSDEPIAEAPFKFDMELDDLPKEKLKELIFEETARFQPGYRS

[8] = target: Prostaglandin G/H synthase 1 (Homo sapiens) (UniProt P23219); assay: Selectivity interaction (Panel of non-epigenetic targets (kinases, GPCRs, ion channels, and transporters, Eurofins) ) EUB0000271b PTGS1; conditions: at 1 µM
Prostaglandin G/H synthase 1 (Homo sapiens), sequence (P23219 whole entry): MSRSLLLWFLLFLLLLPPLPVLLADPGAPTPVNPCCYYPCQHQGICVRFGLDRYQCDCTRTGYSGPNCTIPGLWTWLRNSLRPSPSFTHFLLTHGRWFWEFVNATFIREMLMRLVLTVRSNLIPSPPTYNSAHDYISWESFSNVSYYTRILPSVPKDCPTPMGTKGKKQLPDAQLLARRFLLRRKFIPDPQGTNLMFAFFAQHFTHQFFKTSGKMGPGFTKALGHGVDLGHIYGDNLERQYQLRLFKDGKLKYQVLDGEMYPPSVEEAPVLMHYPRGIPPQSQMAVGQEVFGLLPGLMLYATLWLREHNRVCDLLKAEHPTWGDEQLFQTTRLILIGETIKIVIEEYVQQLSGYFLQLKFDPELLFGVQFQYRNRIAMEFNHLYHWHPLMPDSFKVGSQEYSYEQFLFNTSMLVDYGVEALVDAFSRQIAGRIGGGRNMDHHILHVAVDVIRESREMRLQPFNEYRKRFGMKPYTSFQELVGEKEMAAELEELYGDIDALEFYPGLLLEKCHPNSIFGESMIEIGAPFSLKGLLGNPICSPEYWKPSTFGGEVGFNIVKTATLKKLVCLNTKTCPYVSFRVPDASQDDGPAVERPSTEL

[9] = target: Glutamate receptor ionotropic, NMDA 1 (Homo sapiens) (UniProt Q05586); assay: Selectivity interaction (Eurofins CEREP Diversity Profile (receptors and ion channels)) EUB0000279b GRIN1; conditions: at 10 µM

D(3) dopamine receptor, sequence (P35462 whole entry): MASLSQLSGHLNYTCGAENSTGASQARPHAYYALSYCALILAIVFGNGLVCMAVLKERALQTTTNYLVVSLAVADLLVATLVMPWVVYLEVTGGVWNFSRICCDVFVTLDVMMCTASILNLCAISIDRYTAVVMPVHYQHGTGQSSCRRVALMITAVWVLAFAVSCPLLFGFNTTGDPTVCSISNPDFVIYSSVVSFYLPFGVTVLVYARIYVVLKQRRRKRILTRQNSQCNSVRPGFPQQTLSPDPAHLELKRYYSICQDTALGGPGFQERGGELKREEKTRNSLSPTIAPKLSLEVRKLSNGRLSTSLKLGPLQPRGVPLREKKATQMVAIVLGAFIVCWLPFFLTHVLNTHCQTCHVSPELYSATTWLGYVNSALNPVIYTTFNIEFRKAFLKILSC

For `Nc1cnc(N2CCc3cc(S(=O)(=O)Nc4c(F)cc(Cl)cc4F)cc(N4CCCC4=O)c32)nc1` [TP-020n], which % of inhibition (D(3) dopamine receptor) is on record?
Its % of inhibition is 7.88%.

For `Cc1cc(-c2ccnc(Nc3cnn(C)c3)n2)ccc1CNC(=O)N1CC(OC(C)C)C1`, which % of control [1] is on record?
Its % of control is 9%.

For `Cc1cc([C@@H](C)Nc2ccccc2C(=O)O)c2nc(N3CCOCC3)cc(=O)n2c1` [AZD-6482], which % of control [2] is on record?
The % of control was 100%.

With `Cn1cc(-n2cnc3c(NCc4nc5cc(Cl)c(Cl)cc5[nH]4)nc(N4CCOCC4)nc32)cn1` as the compound, how does the % of control [3] read?
The % of control was 13.1%.

Which % of inhibition [4] does the source give for `CC[C@@H]1[C@H](F)C(=O)N[C@@H]1COc1nccc2cc(C(N)=O)c(OC)cc12` [ZIMLOVISERTIB] here?
The % of inhibition was -11.6%.

And the % of inhibition [5]?
Its % of inhibition is -0.8%.

What about the % of inhibition [6] of the same compound?
The % of inhibition was -5.7%.

How did the pXC50 (Aurora kinase B) turn out when `COc1cc(C(=O)N2CC[C@@H](O)[C@@H](N)C2)cc2nc(-c3cc4ccccc4n3CC3CC3)n(C)c12` was run?
The pXC50 was < 4.5 M.

`CNC(=O)Nc1ccc(-c2nc(N3CC4CCC(C3)O4)c3cnn(C4CCC5(CC4)OCCO5)c3n2)cc1` was tested. Which % of inhibition [7] did it give?
The % of inhibition was 0%.

Which % of inhibition [8] does the source give for `Cc1cc(C)cc([C@@H]2c3cc(C)ccc3NC(=O)CN2C(=O)c2ccc(Br)s2)c1` here?
Its % of inhibition is 17%.

How did the % of control [9] turn out when `CC(=O)c1cc(-c2ccccc2OCC2CC2)c2ncccn12` was run?
The % of control was 106%.
